Experimental data as given in patent US20260297042A1, “BIARYLAMIDE DERIVATIVES AND THEIR USE AS PKMYT1 INHIBITORS” (CANCER RESEARCH TECHNOLOGY LIMITED, priority 2023, published 2026).

Tests used:
Human PKMYT1 = target: T1, Human PKMYT1 (Homo sapiens, UniProt Q99640); experiment: PKMYT1 biochemical ADP-Glo enzymatic assay; details: ADP-Glo; 15 nM PKMYT1 kinase domain, 500 µM ATP, 60 minutes at 26° C.; banded
T1 construct: Human PKMYT1 75-362 was cloned as a TEV cleavable 6xHis fusion; 6xHis (TEV cleavable) (cleaved yes); made in house; host or cells: bacterial cells
T1 sequence (Q99640 75-362): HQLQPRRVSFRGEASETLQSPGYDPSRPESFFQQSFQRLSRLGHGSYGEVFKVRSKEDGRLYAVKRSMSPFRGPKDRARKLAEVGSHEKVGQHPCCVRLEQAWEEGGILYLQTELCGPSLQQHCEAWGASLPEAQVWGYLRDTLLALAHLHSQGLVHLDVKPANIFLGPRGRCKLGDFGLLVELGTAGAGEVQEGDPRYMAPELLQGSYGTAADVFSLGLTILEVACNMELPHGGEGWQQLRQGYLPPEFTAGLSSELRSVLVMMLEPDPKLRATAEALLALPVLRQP
Procedure, shortened: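 IC50 derived from luminescence (ADP-Glo Max) after PKMYT1 kinase domain, 15 nM, turned over 500 µM ATP for 60 min at 26 °C. Buffer contained 10 mM MgCl2, 1 mM EGTA and 0.01% Brij-35 at pH 7.5.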

WEE1 = target: T2, WEE1 (Homo sapiens, UniProt P30291); experiment: Selectivity versus WEE1 assay (ADP-Glo enzymatic assay); assay type: biochemical; details: banded; for IC50: ADP-Glo, 15 nM WEE1, 60 minutes at 26° C.; for PKMYT1 vs. WEE1 selectivity: fold difference in selectivity for PKMYT1 over WEE1, ">N" = at least in this band but could be higher
T2 construct: purchased Thermo Fisher PR7373A
T2 sequence (P30291 whole entry): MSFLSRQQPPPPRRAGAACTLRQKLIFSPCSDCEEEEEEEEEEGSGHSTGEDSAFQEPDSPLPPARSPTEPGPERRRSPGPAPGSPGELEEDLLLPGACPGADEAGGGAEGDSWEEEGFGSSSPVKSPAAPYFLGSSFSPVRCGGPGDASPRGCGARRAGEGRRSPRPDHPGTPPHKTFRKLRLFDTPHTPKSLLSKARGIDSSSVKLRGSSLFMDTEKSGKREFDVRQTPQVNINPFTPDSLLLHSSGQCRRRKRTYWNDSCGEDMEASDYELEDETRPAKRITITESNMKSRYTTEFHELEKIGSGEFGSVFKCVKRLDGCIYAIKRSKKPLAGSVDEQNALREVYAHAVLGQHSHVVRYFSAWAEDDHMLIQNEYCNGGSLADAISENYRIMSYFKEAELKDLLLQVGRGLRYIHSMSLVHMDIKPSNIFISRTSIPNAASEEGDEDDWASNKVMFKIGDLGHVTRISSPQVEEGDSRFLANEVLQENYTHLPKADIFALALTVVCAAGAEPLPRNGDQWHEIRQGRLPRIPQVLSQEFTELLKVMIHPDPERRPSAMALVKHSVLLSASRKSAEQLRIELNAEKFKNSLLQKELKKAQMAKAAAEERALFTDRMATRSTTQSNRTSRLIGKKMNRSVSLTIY
Procedure, shortened: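 Inhibition is measured as reduced ADP production, detected by luminescence with ADP-Glo, after enzyme (15 nM) and 30 µM ATP react for 60 min at 26° C in 1% DMSO-containing HEPES buffer, pH 7.5. Data are accepted only if replicate IC50s fall within 3-fold and r2 exceeds 0.9.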

OVCAR 3 cells = experiment: Cancer cell line proliferation assay, ATP-based cell viability (Cell Titre Glow), OVCAR 3 (CCNE1-amplified); details: for Selectivity ratio KYSE30 Gl50 vs. OVCAR3 Gl50: KYSE30 (normal CCNE1) GI50 vs. OVCAR 3 (CCNE1-amplified) GI50
Description: (§1) Cancer cell lines with either normal (KYSE-30) or amplified CCNE1 expression (OVCAR 3 —ovarian cancer) were evaluated for their sensitivity to PKMYT1 inhibitors using Cell Titre Glow assay (Promega G7573) as endpoint to assess cell proliferation. The luminescence signal was read on a PHERAStar FS microplate reader (BMG Labtech). Data analysis was performed using Microsoft Excel® and Gl50 (concentration that achieves 50% cell growth proliferation inhibition) estimates generated with GraphPad Prism v9.

KYSE-30 cells = experiment: Cancer cell line proliferation assay, ATP-based cell viability (Cell Titre Glow), KYSE-30 (normal CCNE1); details: Homo sapiens, KYSE-30 cells (normal CCNE1), concentration that achieves 50% cell growth proliferation inhibition, read-out: KYSE30 Gl50
Description: as §1

| SMILES | IC50 (Human PKMYT1) [nM] | IC50 (WEE1) [nM] | PKMYT1 vs. WEE1 selectivity (WEE1) | GI50 (OVCAR 3 cells; Homo sapiens, OVCAR 3 cells (CCNE1-amplified), concentration that achieves 50% cell growth proliferation inhibition, read-out: OVCAR 3 Gl50) [nM] | Selectivity ratio KYSE30 Gl50 vs. OVCAR3 Gl50 (OVCAR 3 cells) | GI50 (KYSE-30 cells) [nM] |
| --- | --- | --- | --- | --- | --- | --- |
| Cc1ccc(O)c(C)c1NC(=O)c1cnc(Nc2ccn(C3CCC3)n2)s1 [BAA-013, 2-[(1-cyclobutylpyrazol-3-yl)amino]-N-(3-hydroxy-2,6-dimethyl-phenyl)thiazole-5-carboxamide] | < 50 | 1000 to 11000 | W (10-<100 fold) | 500 to 5000 | X (3-20 fold) | > 5000 |
| Cc1ccc(O)c(C)c1NC(=O)c1cnc(Nc2nn(C)c(C)c2C)s1 [BAA-128, N-(3-hydroxy-2,6-dimethyl-phenyl)-2-[(1,4,5-trimethylpyrazol-3-yl)amino]thiazole-5-carboxamide] | 50 to 1000 | 1000 to 11000 | X (100-<1000 fold) | – | Y (>20 fold) | > 5000 |
| Cc1ccc(O)c(C)c1NC(=O)c1cnc(Nc2cc(C)n(C(C)C)n2)s1 [BAA-233, N-(3-hydroxy-2,6-dimethylphenyl)-2-((1-isopropyl-5-methyl-1H-pyrazol-3-yl)amino)thiazole-5-carboxamide] | < 50 | 50 to 1000 | W (10-<100 fold) | – | Y (>20 fold) | > 5000 |
| Cc1ccc(O)c(C)c1NC(=O)c1cnc(Nc2cc(C)n(CC(C)C)n2)s1 [BAA-237, N-(3-hydroxy-2,6-dimethylphenyl)-2-((1-isobutyl-5-methyl-1H-pyrazol-3-yl)amino)thiazole-5-carboxamide] | < 50 | 1000 to 11000 | W (10-<100 fold) | – | Y (>20 fold) | 500 to 5000 |
| Cc1ccc(O)c(C)c1NC(=O)c1cnc(Nc2cccc(N3CCC(N)CC3)n2)s1 [BAA-274, 2-((6-(4-aminopiperidin-1-yl)pyridin-2-yl)amino)-N-(3-hydroxy-2,6-dimethylphenyl)thiazole-5-carboxamide] | < 50 | 1000 to 11000 | W (10-<100 fold) | – | Y (>20 fold) | 500 to 5000 |
| Cc1ccc(O)c(C)c1NC(=O)c1cnc(Nc2cc(-c3ccc(F)cc3)ccn2)s1 [BAA-294, 2-((4-(4-fluorophenyl)pyridin-2-yl)amino)-N-(3-hydroxy-2,6-dimethylphenyl)thiazole-5-carboxamide] | 50 to 1000 | > 11000 | X (100-<1000 fold) | – | Y (>20 fold) | > 5000 |
| Cc1ccc(O)c(C)c1NC(=O)c1cnc(Nc2cccc(-c3cc(F)cc(F)c3)n2)s1 [BAA-315, 2-((6-(3,5-difluorophenyl)pyridin-2-yl)amino)-N-(3-hydroxy-2,6-dimethylphenyl)thiazole-5-carboxamide] | < 50 | > 11000 | Y (1000-5000 fold) | – | Y (>20 fold) | 500 to 5000 |
| Cc1ccc(O)c(C)c1NC(=O)c1cnc(Nc2cc(C(F)(F)F)nc(NCCC(C)(C)C)n2)s1 [BAA-322, 2-((2-((3,3-dimethylbutyl)amino)-6-(trifluoromethyl)pyrimidin-4-yl)amino)-N-(3-hydroxy-2,6-dimethylphenyl)thiazole-5-carboxamide] | 50 to 1000 | > 11000 | X (100-<1000 fold) | – | Y (>20 fold) | 500 to 5000 |
| Cc1ccc(NC(=O)NC(C)(C)C)nc1Nc1ncc(C(=O)Nc2c(C)ccc(O)c2C)s1.Cl [BAA-336, 2-((6-(3-(tert-butyl)ureido)-3-methylpyridin-2-yl)amino)-N-(3-hydroxy-2,6-dimethylphenyl)thiazole-5-carboxamide hydrochloride] | 50 to 1000 | > 11000 | X (100-<1000 fold) | – | Y (>20 fold) | > 5000 |
| Cc1ccc(O)c(C)c1NC(=O)c1cnc(Nc2cccc(NC(=O)C(C)(C)C)n2)s1 [BAA-339, N-(3-Hydroxy-2.6-dimethylphenyl)-2-((6-pivalamidopyridin-2-yl)amino)thiazole-5-carboxamide] | < 50 | > 11000 | Y (1000-5000 fold) | – | Y (>20 fold) | 500 to 5000 |

Now from value to compound, other results behind:

| IC50 (Human PKMYT1) [nM] | IC50 (WEE1) [nM] | PKMYT1 vs. WEE1 selectivity (WEE1) | GI50 (OVCAR 3 cells; Homo sapiens, OVCAR 3 cells (CCNE1-amplified), concentration that achieves 50% cell growth proliferation inhibition, read-out: OVCAR 3 Gl50) [nM] | SMILES | Selectivity ratio KYSE30 Gl50 vs. OVCAR3 Gl50 (OVCAR 3 cells) | GI50 (KYSE-30 cells) [nM] |
| --- | --- | --- | --- | --- | --- | --- |
| < 50 | 1000 to 11000 | W (10-<100 fold) | – | Cc1ccc(O)c(C)c1NC(=O)c1cnc(Nc2ccn(CC(C)C)n2)s1 [BAA-016, N-(3-hydroxy-2,6-dimethyl-phenyl)-2-[(1-isobutylpyrazol-3-yl)amino]thiazole-5-carboxamide] | X (3-20 fold) | 500 to 5000 |
| < 50 | 1000 to 11000 | X (100-<1000 fold) | – | Cc1ccc(O)c(C)c1NC(=O)c1cnc(Nc2ccn(CC(C)(C)O)n2)s1 [BAA-038] | Y (>20 fold) | > 5000 |
| < 50 | 1000 to 11000 | X (100-<1000 fold) | – | Cc1cn(C)nc1Nc1ncc(C(=O)Nc2c(C)ccc(O)c2C)s1 [BAA-123, 2-[(1,4-dimethylpyrazol-3-yl)amino]-N-(3-hydroxy-2,6-dimethyl-phenyl)thiazole-5-carboxamide] | Y (>20 fold) | > 5000 |
| < 50 | 1000 to 11000 | W (10-<100 fold) | – | Cc1ccc(O)c(C)c1NC(=O)c1cnc(Nc2cc(C)n(C3CCCC3)n2)s1 [BAA-232, 2-((1-cyclopentyl-5-methyl-1H-pyrazol-3-yl)amino)-N-(3-hydroxy-2,6-dimethylphenyl)thiazole-5-carboxamide] | Y (>20 fold) | > 5000 |
| 50 to 1000 | > 11000 | X (100-<1000 fold) | – | Cc1ccc(O)c(C)c1NC(=O)c1cnc(Nc2cccc(-c3ccc(F)cc3)n2)s1 [BAA-306, 2-((6-(4-fluorophenyl)pyridin-2-yl)amino)-N-(3-hydroxy-2,6-dimethylphenyl)thiazole-5-carboxamide] | X (3-20 fold) | 500 to 5000 |
| 50 to 1000 | > 11000 | Y (1000-5000 fold) | – | Cc1cc(Nc2ncc(C(=O)Nc3c(C)ccc(O)c3C)s2)nc(-c2ccc(F)cc2)n1 [BAA-307, 2-((2-(4-fluorophenyl)-6-methylpyrimidin-4-yl)amino)-N-(3-hydroxy-2,6-dimethylphenyl)thiazole-5-carboxamide] | Y (>20 fold) | 500 to 5000 |
| 50 to 1000 | > 11000 | Y (1000-5000 fold) | – | Cc1ccc(NC(=O)OC(C)(C)C)nc1Nc1ncc(C(=O)Nc2c(C)ccc(O)c2C)s1 [BAA-329, tert-butyl (6-((5-((3-hydroxy-2,6-dimethylphenyl)carbamoyl)thiazol-2-yl)amino)-5-methylpyridin-2-yl)carbamate] | X (3-20 fold) | 500 to 5000 |
| < 50 | > 11000 | Y (1000-5000 fold) | – | COc1ccc(NC(=O)C(C)(C)C)nc1Nc1ncc(C(=O)Nc2c(C)ccc(O)c2C)s1.Cl [BAA-330, N-(3-Hydroxy-2.6-dimethylphenyl)-2-((3-methoxy-6-pivalamidopyridin-2-yl)amino)thiazole-5-carboxamide hydrochloride] | Y (>20 fold) | 500 to 5000 |
| < 50 | > 11000 | Y (1000-5000 fold) | – | Cc1ccc(NS(=O)(=O)C(C)(C)C)nc1Nc1ncc(C(=O)Nc2c(C)ccc(O)c2C)s1.Cl [BAA-335, 2-((6-((1,1-dimethylethyl)sulfonamido)-3-methylpyridin-2-yl)amino)-N-(3-hydroxy-2,6-dimethylphenyl)thiazole-5-carboxamide hydrochloride] | Y (>20 fold) | 500 to 5000 |
